Source: paper PMC12650519, “The Identification of a Sub-Micromolar Peptide-Based Protein Arginine Methyltransferase 1 (PRMT1) Inhibitor from a Plate-Based Screening Assay” (Biomolecules, 2025)
Like-named read-outs stand apart in the source and are kept apart here. Starred links: 1 amine or outer side, 2 acyl side, 3 side chain; linkers in the order of their positions; H or OH if unused. Non-standard residues stand in square brackets, D forms with d. Residues, ends and D or L forms follow the SMILES beside them. X1 = N=C(CCl)NCCC[C@H](N[*:1])C(=O)[*:2]

What was measured:
PRMT1 [1] = biological target: T1, PRMT1 (Homo sapiens, UniProt Q99873); assay: MTase-Glo assay, inhibition by chloroacetamidine warhead peptide; assay type: biochemical; conditions: inhibitor 0–250 µM, 4 µL of 400 nM PRMT1, 15 min pre-incubation at 37 °C, substrate AcH4-21 (1 µL of 225 µM), Tris pH 8.0
T1 construct: made in house
T1 sequence (Q99873 1-353 isoform Q99873-3): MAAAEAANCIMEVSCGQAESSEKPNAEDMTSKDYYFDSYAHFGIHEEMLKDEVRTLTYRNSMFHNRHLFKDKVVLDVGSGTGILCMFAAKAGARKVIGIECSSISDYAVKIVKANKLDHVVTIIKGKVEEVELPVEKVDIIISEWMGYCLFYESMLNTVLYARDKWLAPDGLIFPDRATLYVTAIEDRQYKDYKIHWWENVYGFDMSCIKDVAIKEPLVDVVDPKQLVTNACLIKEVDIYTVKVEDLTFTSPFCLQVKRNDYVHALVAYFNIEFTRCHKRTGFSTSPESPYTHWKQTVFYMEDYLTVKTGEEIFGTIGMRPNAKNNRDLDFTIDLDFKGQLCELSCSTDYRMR
Procedure: The MTase-Glo assay was also used to determine the inhibition parameters of the chloroacetamidine warhead peptide. For this assay, various concentrations of the chloroacetamidine warhead peptide (0–250 µM) were added to reaction buffer (80 mM Tris Buffer [pH 8.0], […], 4 mM EDTA, 12 mM MgCl2, 0.4 mg/mL BSA and 4 mM DTT) and incubated for 10 min at 37 °C. Following this incubation, 4 µL of 400 nM PRMT1 was added to the inhibition reaction mix and continued to be incubated at 37 °C for 15 min. The substrate peptide, 1 uL of 225 µM AcH4-21, was added to each reaction for 15 min. To quench the reaction, each sample received 2 µL of 0.5% TFA solution and placed at room temperature before 2.2 µL of the 6× MTase-Glo reagent was added to each sample for 30 min. Then 13.2 µL of the MTase-Glo Detection solution was added and incubated for an additional 30 min. The luminescence signal was read using a BioTek Synergy 2 Multi-Mode Microplate Reader and the % activity was calculated using an SAH standard curve (0–5 µM) before being fit to Equation (2):(2) Fractional Activity of PRMT=1/1+ 1/IC50 using GraFit version 7.03.

PRMT1 [2] = biological target: T1, PRMT1; conditions: cited from earlier work
Procedure: Table 3 List of Validation Peptide Sequences along with the Kinetic Parameters. | column: kcat (min^−1); Km (µM); kcat/Km (M^−1 min^−1) || Design and Synthesis of the Peptide Library. Histone peptides are well-documented substrates of PRMT1 and thus provide a good model for the design of a screening library to search for better PRMT1 peptide substrates. […] Given that our study is focused on identifying peptide substrates with improved kinetic parameters, we chose to use a library based on the H4-16 template. Our previous work highlighted that flexibility was permitted within the ... || Rather than testing all individual hit peptide sequences, and to help identify the specific elements that are important for PRMT1 substrate binding, we collected and synthesized a series of consensus-based sequences from the list of hit peptides.

PRMT1 [3] = assay: Plate-based on-bead substrate screening assay (ADMA antibody / alkaline phosphatase / BCIP); assay type: biochemical; conditions: 20 beads/well; 500 nM PRMT1, 400 µM SAM, 37 °C, HEPES pH 8.0; hit = at least 10 blue beads per well
Procedure: The beads from the filter plate were transferred to an Acrowell 96 Filter screening plate (Cat#5020; Pall Corporation; Port Washington, NY) and rinsed with 0.20 mL DI water, followed by 0.20 mL of TBST 10 times. The beads were swelled with 0.25 mL TBST overnight with gentle rocking at 4 °C. The plate was rinsed with 0.25 mL of Assay Buffer #1 (50 mM HEPES pH 8.0, 50 mM NaCl, 1 mM EDTA). After draining, the plate was incubated with 500 nM PRMT1 in 0.1 mL of Assay Buffer #2 (50 mM HEPES pH 8.0, 50 mM NaCl, 1 mM EDTA, 0.5 mM DTT, 400 µM SAM) for 90 min at 37 °C while rocked gently at 120 rpm. The plate was rinsed with TBST (5 × 0.20 mL) then rocked gently in 100 µL of 0.1% SDS for 15 min at room temperature, before being washed with DI water (10 × 0.20 mL) and TBST (10 × 0.20 mL).
Beads were blocked with 125 µL of 1.5% (w/v) BSA in TBST for 1 h at room temperature with gentle rocking. The beads were rinsed with TBST (5 × 0.20 mL), then incubated overnight at 4 °C with 0.065 mL total volume of TBST + 1.5% (w/v) BSA + 1:500 Ab412 antibody (purchased from Abcam; Cambridge, UK) with gentle rocking.
The plate was then rinsed with 0.20 mL of TBS for 10 min and 0.20 mL TBST for another 10 min. The plate was incubated with gentle rocking for 60 min at room temperature with 0.065 mL total volume of TBST + 1.5% (w/v) BSA + 1:4000 Ab98690 antibody (secondary antibody: purchased from Abcam; Cambridge, UK). This mixture was rinsed with TBS (10 × 0.20 mL), then 0.2 mL TBST for 10 min. The plate was then incubated with 2.5 mg/mL 5-Bromo-4-chloro-3-indolyl phosphate (BCIP: a substrate that detects alkaline phosphatase emitting a blue hue when conjugated with secondary antibodies) dissolved in BCIP buffer (5.85 g NaCl, 12.1 g Tris-base, 0.476 g MgCl2 in 1 L of DI water, pH 9.0) at room temperature for 1 h with gentle rocking. The reaction was quenched with 0.1 M HCl.
Previously, we reported on this novel plate-based screening assay of the PRMT family of enzymes and identified a PRMT1 peptide substrate with kcat/Km of 8.1 × 10^4 M^−1 min^−1, which validated this screening methodology. In the current work, we utilized this method to screen a second-generation peptide library against PRMT1, which incorporated amino acids with diverse charge, size, and PTMs around the substrate arginine. Beads functionalized with peptide library members were washed extensively with buffers and subsequently incubated with PRMT1 for 60 min. The methylation reaction was then quenched with sodium dodecyl sulfate to denature PRMT1 and halt the enzymatic reaction. The peptide beads that contained ADMA as a result of PRMT1 action were identified using a 1° antibody that binds only to ADMA. […] The beads were then incubated with a 2° antibody conjugated to alkaline phosphatase. […]

PRMT1 [4] = biological target: T1, PRMT1; assay: MTase-Glo Methyltransferase Assay, kinetic parameters of peptide substrates; assay type: biochemical; conditions: Tris pH 8.0; for kcat / Km: MTase-Glo luminescence, peptide 0–1000 µM, 4 µL of 200 nM PRMT1, 10 min at 37 °C, SAH standards, fit with GraFit; for kcat/Km: from kcat and Km, MTase-Glo assay, 37 °C
Procedure: To determine the kinetic parameters, kcat, Km and kcat/Km for each of the validation or hit peptides, a MTase-Glo™ Methyltransferase Assay from the Promega Corporation was utilized to monitor the enzymatic reaction.
Varying concentrations (0–1000 µM) of the peptide in assay buffer (4 mM DTT, 0.4 mg/mL BSA, 4 mM EDTA, 12 mM MgCl2, 200 mM NaCl and 80 mM Tris Buffer-pH 8.0) were incubated at 37 °C for 10 min. Then 4 µL of 200 nM PRMT1 was added to this reaction mixture and continued for another 10 min at 37 °C. Of note the enzymatic activity was linear with respect to time and enzyme concentration under these conditions. The reaction was quenched by the addition of 2 µL 0.5% TFA and placed at room temperature before adding 2.2 µL of the 6× MTase-Glo Reagent. After 30 min, 13.2 µL of the MTase-Glo Detection Solution was added and incubated for an additional 30 min before the luminescence was read using a BioTek Synergy 2 Multi-Mode Microplate Reader (Agilent Technologies, Santa Clara, CA). Luminescence signal was converted to product concentration using SAH standards (0–5 μM) and the initial rates were fit to Equation (1):[…](1) using GraFit version 7.03.

[5] = reference histone peptide substrate in Table 3, same kcat/Km as quoted

| Compound | hit / non-hit as PRMT1 substrate in the plate-based screen (PRMT1 [3]) | kcat (PRMT1 [4]) | Km (PRMT1 [4]; read-out: Km) [µM] | kcat/Km (PRMT1 [4]) [M⁻¹ s⁻¹] | other results |
| --- | --- | --- | --- | --- | --- |
| CC(=O)NCCCC[C@H](N)C(=O)N[C@@H](CCCCN)C(=O)N[C@@H](CS)C(=O)N[C@@H](CCCCN)C(=O)N[C@@H](C)C(=O)N[C@@H](CCCNC(=N)CCl)C(=O)NCC(=O)NCC(=O)N[C@@H](CCCCN)C(=O)NCC(=O)N[C@@H](CC(C)C)C(=O)NCC(=O)N[C@@H](CCCCN)C(=O)NCC(=O)NCC(=O)N[C@@H](C)C(=O)N[C@@H](CCCCN)C(N)=O [VALPep1 Warhead Peptide] (H-K(Ac)KCKA[X1]GGKGLGKGGAK-NH2) | – | – | – | – | IC50 (PRMT1 [1]): 3.47 ± 0.46 µM |
| H4-21 peptide: one of the best-known PRMT1 peptide substrates | – | – | – | – | kcat/Km (PRMT1 [2]; known PRMT1 peptide substrate Histone H4-21, literature value, no reference printed): 4670 M⁻¹ s⁻¹; kcat/Km (PRMT1 [2]; known PRMT1 peptide substrate Histone H4-21, literature value, no reference printed, listed as Histone H4-21): 4670 M⁻¹ s⁻¹ |
| SGRGKGGKGLGKGGAK [AcH4-16, Histone H4-16 peptide, a mediocre substrate of PRMT1, template of the library] | – | – | – | – | Km (PRMT1 [2]; [5]): 170 ± 25 µM; kcat (PRMT1 [2]; [5]): 0.00533 ± 1.7e-05 s⁻¹; kcat/Km (PRMT1 [2]; reference histone peptide substrate): 31.7 M⁻¹ s⁻¹ |
| VKVCXRGGKGLGKGGAK [Well D5 Peptide, “hit” library peptide VKVCX…, X = acetylated lysine] | hit | 0.0318 ± 0.00188 s⁻¹ | 6.78 ± 1.77 | 4700 | kcat (PRMT1 [4]; listed as Well D5): 0.03187 ± 0.00188 s⁻¹; kcat/Km (PRMT1 [4]; listed as Well D5): 4702 M⁻¹ s⁻¹ |
| VXWAWRGGKGLGKGGAK [Well E9 Peptide, “non-hit” library peptide VX…, X = acetylated lysine] | non-hit | not detectable | – | – | Km (PRMT1 [4]): not detectable |
| WWXXWRGGKGLGKGGAK [Well B10 Peptide, “non-hit” library peptide WWXX…, X = acetylated lysine] | non-hit | not detectable | – | – | Km (PRMT1 [4]): not detectable |
| XCCVARGGKGLGKGGAK [Well G2 Peptide, “hit” library peptide X…, X = acetylated lysine] | hit | 0.0164 ± 6.7e-05 s⁻¹ | 25.4 ± 3.95 | 648 | – |
| XKCKARGGKGLGKGGAK [VALPep1] | – | 0.041 ± 0.00133 s⁻¹ | 8.72 ± 1.2 | 4700 | – |
| XKCVVRGGKGLGKGGAK [VALPep3] | – | 0.0154 ± 0.0006 s⁻¹ | 6.92 ± 1.16 | 2230 | – |
| XKKKARGGKGLGKGGAK [VALPep2] | – | 0.043 ± 0.0029 s⁻¹ | 7.82 ± 2.23 | 5480 | – |
| XKKVVRGGKGLGKGGAK [VALPep4] | – | 0.0268 ± 0.00173 s⁻¹ | 7.42 ± 2.02 | 3600 | – |
